Earlier results on three compounds are cited in article PMC9098912, “Molecular basis for inhibiting human glucose transporters by exofacial inhibitors” (Nature Communications, 2022).

“Also recorded” adds a separate entry of the source.

One series concerns the target T1, human GLUT3(N43T) (Homo sapiens, UniProt P11169, N43T).
T1 construct: His10 (N); made in house; host or cells: Sf9 insect cells (baculovirus)
T1 sequence (P11169 1-496 N43T): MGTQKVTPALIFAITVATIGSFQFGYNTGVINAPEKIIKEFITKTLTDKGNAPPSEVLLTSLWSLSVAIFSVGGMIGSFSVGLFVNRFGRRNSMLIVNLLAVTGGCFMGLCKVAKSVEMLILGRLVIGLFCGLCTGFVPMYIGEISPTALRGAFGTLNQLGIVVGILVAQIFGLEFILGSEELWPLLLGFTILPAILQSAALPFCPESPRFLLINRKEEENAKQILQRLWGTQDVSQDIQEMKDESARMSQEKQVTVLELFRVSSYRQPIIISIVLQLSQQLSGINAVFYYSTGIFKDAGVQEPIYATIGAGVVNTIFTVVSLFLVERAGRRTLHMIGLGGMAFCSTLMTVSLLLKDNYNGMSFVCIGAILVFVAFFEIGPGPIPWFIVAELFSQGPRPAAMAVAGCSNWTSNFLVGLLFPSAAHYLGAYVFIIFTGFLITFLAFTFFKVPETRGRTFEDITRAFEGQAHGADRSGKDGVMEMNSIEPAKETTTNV
Particulars: 50 mM maltose, cited from earlier work.

The target in series [1] is T2, human glucose transporter GLUT1(N45T) (Homo sapiens, UniProt P11166, N45T).
T2 construct: made in house
T2 sequence (P11166 1-492 N45T): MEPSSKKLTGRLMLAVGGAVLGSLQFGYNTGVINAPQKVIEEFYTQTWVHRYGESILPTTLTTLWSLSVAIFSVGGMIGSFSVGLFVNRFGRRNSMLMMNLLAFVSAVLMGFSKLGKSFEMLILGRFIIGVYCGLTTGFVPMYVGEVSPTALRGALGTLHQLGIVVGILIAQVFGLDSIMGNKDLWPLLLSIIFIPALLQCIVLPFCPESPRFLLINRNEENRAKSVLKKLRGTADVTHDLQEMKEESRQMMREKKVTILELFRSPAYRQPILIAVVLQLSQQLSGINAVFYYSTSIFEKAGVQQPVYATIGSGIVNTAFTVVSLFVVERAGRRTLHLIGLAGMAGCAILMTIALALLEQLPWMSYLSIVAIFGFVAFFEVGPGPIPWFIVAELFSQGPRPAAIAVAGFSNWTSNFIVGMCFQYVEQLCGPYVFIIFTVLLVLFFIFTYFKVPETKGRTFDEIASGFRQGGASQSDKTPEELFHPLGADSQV
As to conditions: 50 mM maltose, cited from earlier work.

The next series relates to GLUT3. More on the design: method as in PMID 12792024. Particulars: cited from earlier work.
In another series the test system is GLUT1. More on the design: method as in Siebeneicher et al., 2016. Particulars: SAR of Bayer compounds; ref Siebeneicher et al., 2016; cited from earlier work.
The test system of another series is GLUT1/3 over GLUT2. Details: method as in Siebeneicher et al., 2016. As to conditions: ref Siebeneicher et al., 2016; cited from earlier work.

For the compound `OC[C@H]1O[C@H](O[C@H]2[C@H](O)[C@@H](O)C(O)O[C@@H]2CO)[C@H](O)[C@@H](O)[C@@H]1O` (mixture of isomers) [maltose], the “Inhibition of glucose transport” value at human GLUT3(N43T) (ref 18 (Deng et al., 2015)) is “could not be completely blocked; also recorded: cannot completely inhibit”; in series [1] (ref 18 (Deng et al., 2015)), “could not be completely blocked; also recorded: cannot completely inhibit”. In addition, the Preserved transport activity result on human GLUT3(N43T) (ref Deng et al., 2015) was “one quarter”; in series [1] (ref Deng et al., 2015), “one third”.
Consider `C=CCCCCCCCCCO[C@H]1[C@H](O)[C@@H](CO)OC(O)[C@@H]1O` (stereo partly shown) [C3361], for which, in the series on GLUT3, the “GLUT3 inhibition” value is given as “weak inhibitor”.
In the case of `COc1ccc(F)cc1N1CCN(c2ncnc3c2cnn3-c2ccccc2)CC1` [cmpd 15], the “GLUT1 potency” value in the series on GLUT1 is “favors GLUT1 association”. In the series on GLUT1/3 over GLUT2, the “Selectivity” value is “selective inhibition to GLUT1/3 over GLUT2”.
